In patent publication US20150034084A1, “[…] NITRIC OXIDE FOR TREATING RESPIRATORY DISEASES” (Advanced Inhalation Therapies (AIT) Ltd., priority 2012, published 2015):
Read-outs that look alike come from different tables or passages of the source.

Tests used:
[1] = rats, cited from earlier work
[2] = test system: Klebsiella sp.#2; settings: 200 ppm gNO, saline; cited from earlier work
[3] = test system: S. aureus (Clinical); settings: 200 ppm gNO, saline; cited from earlier work
[4] = Phase I safety study: inspiratory NO2 level during gNO delivery; parameters: species or system human; settings: inspired gas at mouthpiece
Protocol: Subjects were administered gNO through a modified disposable mouthpiece to maximize mixing. Inspiration was spontaneously initiated by the subject from a conventional intermittent positive pressure breathing respirator (Mark-7, Carefusion, USA) in fixed flow mode delivering 48 liters per minute (LPM). Flows of gas were verified with a calibrated mass flow meter (TSI, USA). Gaseous nitric oxide (gNO, obtained at INOmax, Ikaria, USA) at a concentration of 800 ppm delivered at a flow of 12 LPM was titrated into a distal delivery port on the mouth piece connected to the respirator during inspiratory phase only (pressure switch). The Mark 7 respirator was supplied by an air/oxygen blender (Bird Sentry, Carefusion, USA) set to deliver 26% oxygen.
The levels of gNO, NO2, O2 and methemoglobin were monitored during the administration of gNO. The target gas mixture was 160 ppm gNO with a nitrogen dioxide (NO2) level of less than 5 ppm and an oxygen (O2) level ranging from 21% to 25%. Inspiratory NO, NO2 and O2 levels were continuously monitored by sampling from the mouthpiece sample port located about 6 millimeters from the mouth of the subject with an AeroNOx (Pulmonox, AB, Canada) NO, NO2 and O2 electrochemical analyzer. Delivery safety was determined by the number of occasions that NO2 exceeded 5 ppm, gNO exceeding 10% variation and O2 dropping below 20% during gNO administration. […]

[5] = Phase I safety study: pulmonary function tests; format: in vivo, human
Protocol: (§1) After obtaining informed consent, treatment was initiated within 5 days of enrollment. Subjects were housed in a hospital ward and received 160 ppm gNO for 30 minutes every four hours (Q4h), five times a day, for five consecutive days by inhalation. Subjects returned for follow-up evaluations 3, 7 and 21 days after the final gNO administration. Subject safety was determined by monitoring vital signs, methemoglobin levels, lung function, blood chemistry, hematology, prothrombin time, inflammatory cytokine/chemokines levels and endothelial activation. These parameters were compared to baseline and at various time-points during and after gNO administration.
Subjects underwent full pulmonary function tests (PFT), including lung diffusing capacity (DLCO) by a trained technician utilizing a calibrated pulmonary function system (Jaeger MasterScreen, VIASYS Healthcare, USA) on screening and days 2, 8, 12 and 26. Spirometry test (Microloop by Micro Medical, England) was performed on days 1, 3 and 4. Effect of gNO on lung function and DLCO was determined by changes from baseline, treatment days and follow up days.

[6] = continuous delivery of 80 ppm gNO; cited from earlier work
[7] = test system: bovine respiratory disease; settings: intermittent 30 minute exposures of gNO, cattle; cited from earlier work
[8] = test system: Acinetobacter sp.; settings: 200 ppm gNO, saline; cited from earlier work
[9] = test system: E. Coli; settings: 200 ppm gNO, saline; cited from earlier work
[10] = test system: Serracia sp.; settings: 200 ppm gNO, saline; cited from earlier work
[11] = Phase I safety study: hematology, clinical chemistry, coagulation; format: in vivo, human
Protocol: as §1
(§2) Hematological assessment included a complete blood count and differentials (hemoglobin, hematocrit, red blood cell count, white blood cell count, white blood cell differential, and platelet count) were obtained in order to monitor blood chemistry, hematology and inflammation measurements. The blood chemistry profile included serum creatinine, and liver function tests such as aspartate aminotransferase (AST) serum glutamic oxaloacetic transaminase (SGOT), alkaline phosphatase, and gamma-glutamyl transferase (GGT). The effect of gNO on coagulation was determined by the prothrombin time (PT) and its derived measures of prothrombin ratio (PR) and international normalized ratio (INR). Heparinized plasma was collected at baseline and on days 1, 2, 4, and 5 of gNO administration, and on follow-up days 3, 7 and 21 and frozen at −80° C. Plasma cytokine levels were assessed using the human inflammation cytokine bead array kit (BD Bioscience, Canada). Plasma levels of angiopoietin Ang-1 and Ang-2 were determined by ELISA (R&D Systems, USA).

[12] = test system: MRSA; settings: 200 ppm gNO, saline; cited from earlier work
[13] = test system: Ang-1 and Ang-2; assay: Phase I safety study: plasma angiopoietins (vascular endothelial activation); format: in vivo, human; settings: 160 ppm gNO inhalation
Protocol: as §1, §2
To assess whether gNO inhalation may cause inflammation or endothelial activation cytokines and the vascular endothelium activation factors Ang-1 and Ang-2 were quantified in peripheral plasma at baseline at various time points thereafter.

[14] = test system: highly pathogenic Avian Influenza H7N3; settings: cited from earlier work
[15] = test system: S. maltophilia; settings: 200 ppm gNO, saline; cited from earlier work
[16] = test system: P. aeruginosa (ATCC); settings: 200 ppm gNO, saline; cited from earlier work

## [N]=O [gNO, nitric oxide]
[1]; 300 ppm gNO, groups of 10, first 1-2 days
  mortality: Six of the animals
[1]; 400 ppm gNO, 6 hours per day
  mortality: all of the animals died on the first day
[1]; 400 ppm gNO
  MetHb level: 72.5 percents
[1]; 500 ppm gNO, 6 hours per day
  mortality: all of the animals died on the first day
[1]; 500 ppm gNO
  MetHb level: 67 percents
[2]
  LD100: 5 h
  Latent Period: 2 h
  −2.5 Log10: 4.1 hours
[3]
  LD100: 4 h
  Latent Period: 3 h
  −2.5 Log10: 3.7 hours
[4]; 160 ppm gNO
  highest NO2 level recorded during the treatments: 2.8 ppm
[4]; 95% confidence level 2.17-2.47 ppm
  mean NO2 level: 2.32 ppm
[5]; 160 ppm NO, measured by lung function parameters
  lung parenchymal injury: did not cause lung parenchymal injury
[5]; during and after gNO administration, 160 ppm
  pulmonary function tests, abnormalities: did not reveal any abnormalities
[5]; during the course of the study
  DLCO versus baseline: did not change from baseline
  FEV1 versus baseline: did not differ from baseline
  forced vital capacity (FVC) versus baseline: did not change from baseline
  maximum mid-expiratory flow (MMEF) versus baseline: did not differ from baseline
  residual volume (RV) versus baseline: did not change from baseline
  total lung capacity (TLC) versus baseline: did not change from baseline
[6]
  NO2 level: 2.6 ppm
  increase of SpMet levels: at least 5%
  subjects exceeding 7% SpMet: 35%
[7]
  clinical symptoms of bovine respiratory disease: decrease the clinical symptoms
[8]
  LD100: 6 h
  Latent Period: 4 h
  −2.5 Log10: 5 hours
[9]
  LD100: 5 h
  Latent Period: 3 h
  −2.5 Log10: 4.2 hours
[10]
  LD100: 6 h
  Latent Period: 4 h
  −2.5 Log10: 4.9 hours
[11]; baseline 0.15 giga/L, p=0.104
  eosinophil cell numbers, end of study: 0.19 giga/L
[11]; baseline to completion of day 5
  blood coagulation parameters, clinical chemistry and hematological parameters: no statistically, nor clinically significant changes
[11]; baseline value of zero, p=0.169
  neutrophil cell numbers, end of study: 0.01 giga/L
[12]
  LD100: 5 h
  Latent Period: 3 h
  −2.5 Log10: 4.2 hours
[13]
  Ang-2/Ang-1 ratio: not affected
  plasma Ang-1: unaffected
  plasma Ang-2: not affected
[14]
  infectivity: reducing the infectivity
[15]
  LD100: 4 h
  Latent Period: 2 h
  −2.5 Log10: 2.8 hours
[16]
  LD100: 3 h
  Latent Period: 1 h
  −2.5 Log10: 2.1 hours
